The values below come from paper PMC8063965 (Journal of medicinal chemistry, 2021).

The target in one data set is T1, full-length hHDAC6 (Homo sapiens, UniProt Q9UBN7).
T1 sequence (Q9UBN7 1-1215): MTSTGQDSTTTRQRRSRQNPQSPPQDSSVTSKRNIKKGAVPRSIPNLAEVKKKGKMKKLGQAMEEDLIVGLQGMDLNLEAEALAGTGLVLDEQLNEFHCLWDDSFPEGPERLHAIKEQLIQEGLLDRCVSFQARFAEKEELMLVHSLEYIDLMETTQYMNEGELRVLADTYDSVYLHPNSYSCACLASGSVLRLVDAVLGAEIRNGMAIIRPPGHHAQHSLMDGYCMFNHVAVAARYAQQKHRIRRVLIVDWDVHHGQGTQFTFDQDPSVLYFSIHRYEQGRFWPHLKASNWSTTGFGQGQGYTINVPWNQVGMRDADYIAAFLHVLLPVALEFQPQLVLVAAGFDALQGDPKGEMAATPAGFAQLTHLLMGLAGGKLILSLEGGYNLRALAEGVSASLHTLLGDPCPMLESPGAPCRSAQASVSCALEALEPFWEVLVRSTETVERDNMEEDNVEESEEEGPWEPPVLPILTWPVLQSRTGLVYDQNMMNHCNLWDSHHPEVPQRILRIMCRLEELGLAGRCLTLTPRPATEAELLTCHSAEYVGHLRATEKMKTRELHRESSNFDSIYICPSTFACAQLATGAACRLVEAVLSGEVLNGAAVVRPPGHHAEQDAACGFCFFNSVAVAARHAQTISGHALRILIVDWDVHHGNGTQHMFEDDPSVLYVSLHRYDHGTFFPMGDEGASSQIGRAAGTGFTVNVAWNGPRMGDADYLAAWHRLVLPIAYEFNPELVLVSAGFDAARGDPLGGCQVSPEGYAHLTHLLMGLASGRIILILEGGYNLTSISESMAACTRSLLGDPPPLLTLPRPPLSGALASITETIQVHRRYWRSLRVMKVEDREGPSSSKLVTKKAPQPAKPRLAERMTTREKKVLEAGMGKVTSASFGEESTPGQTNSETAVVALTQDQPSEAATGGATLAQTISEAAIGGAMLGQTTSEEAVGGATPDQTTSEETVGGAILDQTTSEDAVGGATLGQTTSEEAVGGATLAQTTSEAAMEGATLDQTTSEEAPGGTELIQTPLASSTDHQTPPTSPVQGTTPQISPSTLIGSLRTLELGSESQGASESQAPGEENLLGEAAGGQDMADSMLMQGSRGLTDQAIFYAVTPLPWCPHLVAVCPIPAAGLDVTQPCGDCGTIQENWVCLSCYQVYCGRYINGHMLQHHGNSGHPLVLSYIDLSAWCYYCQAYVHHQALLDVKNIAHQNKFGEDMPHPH
Description: EMSA activity-based inhibition assay, HDAC6. The class given is biochemical. Conditions: for fold improvement of potency on moving the fluorine substituent: ortho- and meta-fluoro versus parent analog, selectivity was lost. For orientation: In EMSA bound probe runs differently from free probe, usually more slowly.

Data set [1] concerns Ac-α-tubulin in HeLa cells. As to the kind of experiment: Immunofluorescence assay, Ac-α-tubulin. The class given is cell-based. As to conditions: 6 h.
The subject of data set [2] is 'normal' MRC9 lung fibroblasts. As to the kind of experiment: Cytotoxicity assay. The data set is classed as cell-based. Conditions: 72 h.
The target in a further data set is T2, drHDAC6 CD2 (Danio rerio, UniProt F8W4B7).
T2 sequence (F8W4B7 440-798 limits assumed): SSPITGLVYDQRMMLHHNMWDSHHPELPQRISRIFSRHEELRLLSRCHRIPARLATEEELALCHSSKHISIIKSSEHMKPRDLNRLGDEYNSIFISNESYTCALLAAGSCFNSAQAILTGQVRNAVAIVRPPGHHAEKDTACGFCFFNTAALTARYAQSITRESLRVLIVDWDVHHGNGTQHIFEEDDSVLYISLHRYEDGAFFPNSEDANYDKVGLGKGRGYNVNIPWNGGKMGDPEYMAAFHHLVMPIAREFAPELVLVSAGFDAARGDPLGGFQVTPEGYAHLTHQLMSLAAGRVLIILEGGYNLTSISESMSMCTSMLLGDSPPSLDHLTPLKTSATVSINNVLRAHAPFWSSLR
As to the kind of experiment: Fluorescence polarization. As to conditions: orthogonal fluorescence polarization assay. The data set is classed as binding, Danio rerio (zebrafish). A general note: In fluorescence polarisation assays a small probe gives low polarisation when free and higher when bound to something large.

The nature of data set [3]: Pooled human whole blood stability assay. The class given is in vitro ADME. As to conditions: triplicate.
The test system of data set [4] is MV4–11 cells. As to the kind of experiment: FACS apoptosis detection assay. The data set is classed as cell-based.
In the next data set the test system is Ac-histone in HeLa cells. Description: Immunofluorescence assay, Ac-histone. The data set is classed as cell-based. Conditions: 0.1 μM or 2 μM, 6 h.
The target of a further data set is T3, HDAC6 (Homo sapiens, UniProt Q9UBN7).
T3 sequence (Q9UBN7 1-1215): T1 sequence (Q9UBN7 1-1215)
Description: Intact mass spectrometry analysis of the enzyme. As to conditions: intact mass spectrometry on treatment with compound.

Data set [5] is described as follows: Mouse plasma stability assay. The data set is classed as in vitro ADME. Conditions: triplicate.
Data set [6] concerns MV4–11 cells. Description: Detection of ROS generation. The data set is classed as cell-based. As to conditions: MV4–11, 10 μM, up to 4 h, versus DMSO control.
Data set [7] has as its system Ac-histone H3 in MV4–11 cells. Description: Western blot of Ac-histones. The class given is cell-based.
The test system of data set [8] is Ac-α-tubulin in MV4–11 cells. Description: Western blot of Ac-α-tubulin. The class given is cell-based. (In general: A western blot detects proteins with antibodies after separation by electrophoresis.)
Data set [9] concerns six leukemic cancer cells. Description: Cytotoxicity assay. The class given is cell-based. As to conditions: 72 h, read-out: average anti-proliferative IC50.

For the molecule `O=C(NO)c1ccc(CN(Cc2cccc(F)c2)S(=O)(=O)c2cc(F)c(F)c(F)c2F)cc1` [Compound 12], the “fold improvement of potency on moving the fluorine substituent” value on full-length hHDAC6 is 2 fold.

For the molecule `O=C(NO)c1ccc(CN(Cc2cccnc2)S(=O)(=O)c2cc(F)c(F)c(F)c2F)cc1` [TO-317], in data set [1], the “accumulation of Ac-α-tubulin (red stain) at 2 μM” value was “significant accumulation”. In data set [2], the “activity in normal cells” value is “minimal activity”. Besides, on drHDAC6 CD2, the “potency of interaction with drHDAC6 CD2 (FP)” value was 4 nM. Further, the “Remaining percentage concentration, 0 min” value in data set [3] and in [5] was 100% throughout. Moreover, the “early and late apoptotic cell populations, combined” value in the data set on MV4–11 cells [4] (MV4–11, 0.25 μM) is recorded as 11%; in the data set on MV4–11 cells [4] (MV4–11, 2 μM), 65%; in the data set with MV4–11 cells [4] (MV4–11, 4 μM), 73%. Further, in the data set with MV4–11 cells [4] (MV4–11, across the range of concentrations tested, versus DMSO control), the “necrosis (UL sub-population)” value is recorded as “does not show statistically different changes to necrosis”. Also, in the data set on Ac-histone in HeLa cells, the “levels of Ac-histone (green stain)” value is listed as “do not change significantly”. Moreover, the “covalent modification of the enzyme” value on HDAC6 was “no covalent modification of the enzyme was observed”. Moreover, the ROS generation entry in the data set on MV4–11 cells [6] was “markedly increased levels of ROS after 2 h incubation”. Moreover, the Ac-histones accumulation result in data set [7] (MV4–11 cells, at 0.25 μM, 6 hours) is reported as “minimal accumulation”. In data set [7] (cells not given), the “concentration required to observe distinct acetylation of H3 histone” value is on record as ~ 0.75 μM. In data set [8] (MV4–11 cells, 0.25 μM, 6 hours), the “Ac-α-tubulin levels at 0.25 μM” value is reported as “significant increase”. Also, the “lowest concentration giving preferential increase in acetylated α-tubulin” value in [8] (dose-dependent, cells not given) came to 50 nM. The 50% inhibitory concentration (IC50) in [9] is under 2000 nM.

`O=C(NO)c1ccc(CN(Cc2ccccn2)S(=O)(=O)c2cc(F)c(F)c(F)c2F)cc1` [Compound 14]: on full-length hHDAC6 (relative to 9), the “fold more potent against HDAC6 compared to 9” value is 2 fold.

As for `O=C(NO)c1ccc(CN(Cc2ccncc2)S(=O)(=O)c2c(F)c(F)c(F)c(F)c2F)cc1` [Compound 8], the HDAC6 selectivity on full-length hHDAC6 (against 4 representative HDAC homologs (Table 1)) is given as over 71 fold.

For the molecule `O=C(NO)c1ccc(CN(Cc2ccccc2F)S(=O)(=O)c2cc(F)c(F)c(F)c2F)cc1` [Compound 13], the “fold improvement of potency on moving the fluorine substituent” value at full-length hHDAC6 amounted to 2 fold.

`O=C(CCCCCCNC(=O)c1cnc(N(c2ccccc2)c2ccccc2Cl)nc1)NO` [Citarinostat, reference compound]: in data set [1], the “accumulation of Ac-α-tubulin (red stain) at 2 μM” value is on record as “slightly less prominent”.

A word on the IC50: it is the midpoint of a concentration-inhibition curve.
